What was measured:
SMN protein [1] = assay: SMN cytoblot assay in SMA patient fibroblasts; format: cell-based, human; conditions: for SMN protein levels: SMA patient fibroblasts, cytoblot; for SMN per viable cell (normalized hit): SMN cytoblot relative to cell number estimated by Alamar blue
Experimental: One method for monitoring SMN protein levels in cells is through use of a cytoblot assay, in which cells are fixed and probed with an antibody against a target protein of interest.
Using the cytoblot assay, we can clearly distinguish SMN protein levels in patient (GM03813) versus carrier fibroblast cells (GM03814).
The SMN cytoblot protocol is described below.
• 1. Plate 50 μl per well of 300,000 cells/ml (15,000 cells per well) into Nunc white 384-well opaque-bottomed plates. • 2. Incubate plates at 37° C., 5% CO2 overnight. Day 2 • 1. Aspirate media from wells using Tecan plate washer. • 2. Fix cells by adding 20 μl/well of cold methanol (kept in −20° C. freezer). • 3. Incubate plates in 4° C. refrigerator for 10 minutes. • 4. Aspirate methanol using Tecan plate washer. • 5. Add 50 μl/well of primary Ab solution, (BD anti-SMN Ab diluted to 125 ng/ml in 10% fetal goat serum PBST), using multi-drop. • 6. Seal plates and incubate overnight at room temperature. Day 3 • 1. After 16-20 hrs incubation, wash plates with PBST 2× using Tecan plate washer. • 2. Add 50 μl of secondary Ab solution, (Santa Cruz goat anti-Mouse-HRP diluted to 67 ng/ml in 10% fetal goat serum PBST). • 3. Seal plates and incubate 2 hrs at room temperature. • 4. Wash plates with PBST 2× using Tecan plate washer. • 5. Add 50 μl/well 10% fetal goat serum PBST. • 6. Incubate in 4° C. refrigerator for 10 minutes. • 7. Aspirate plates using plate washer and add ECL luminescence solution, 20 μl/well. • 8. Measure luminescence on plate reader. Automated Scoring
We scored each compound based on the maximum signal-to-noise ratio (SNR) found among its dose curves. These scores are based on edge-corrected SMN data, using only plates that passed quality control. The untreated level on each plate was found by taking the median of the untreated wells, and for each treated well we calculated a log(T/U) ratio. Each curve was generated in triplicate on each plate, so each point on a compound's dose curve was obtained by determining the median for the replicate points. Each ratio thus has an error estimate from the scatter between the triplicate data points (1.5 times the median absolute deviation from the median). For each dose curve, we calculated the SNR for each data point log(T/U)/error, and chose the maximum point as our indicator of SMN induction activity. Since this is a signal-to-noise score, scores much greater than one indicate significant activity, assuming normal statistics. We decided to use a cutoff signal-to-noise ratio of 6. This selection represents a considerable enrichment towards visually-selected compounds. We identified 100 out of 2000 compounds producing scores>6. This included 13 of the 28 visual selections.
• 1. […] Type 3 reversal of curve hits […]

SMN protein [2] = assay: Western blot of SMN protein in treated cells; format: cell-based, human; conditions: 72 hours treatment, densitometry, fold change relative to vehicle (DMSO)
Experimental: Effects on SMN protein levels were also confirmed by western blots. Cells were treated with compound or vehicle for 72 hours. Cell lysates were prepared and analyzed by western blot. SMN protein levels were quantified by densitometry and normalized to an internal control protein (GAPdH or EIF4e) (FIGS. 4-6). The SMN/control ratios shown in FIGS. 4-6 depict the fold change relative to vehicle (DMSO) control.

## NC12CC3CC(CC(C3)C1)C2 [amantadine]
SMN protein [1]
  SMN protein levels: increase SMN protein levels
  SMN per viable cell (normalized hit): normalized hits

## CC12CC3CC(C)(C1)CC(N)(C3)C2 [memantine, 1-amino-3,5-dimethyl adamantane]
SMN protein [1]
  SMN protein levels: increase SMN protein levels
  SMN per viable cell (normalized hit): normalized hits
SMN protein [2]
  SMN protein relative to control proteins GAPdH and eIF4E: increases in SMN protein

Reference: patent publication US20060270742A1, “Compositions and methods for the treatment of neurodegenerative diseases” (priority 2005, published 2006)
